Results taken from patent publication US20250263370A1 (Tay Therapeutics Limited, priority 2022, published 2025).
Values joined by “and” are separate entries in the source; they are usually repeats but may differ in a detail not shown here. Equal values may be shown once. “Also recorded” adds a separate entry of the source.

Tested on: collagen-induced arthritis
Assay: Collagen-induced arthritis (CIA) model in rats: body weight, paw volume, clinical scores, clinical observations
Settings: CIA rats
[1] = 10 mg/kg twice daily P.O. (group 6), day 21
[2] = 30 mg/kg twice daily P.O. (group 7)
[3] = 30 mg/kg twice daily P.O. (group 7), day 15
[4] = 30 mg/kg twice daily P.O. (group 7), day 19
[5] = 30 mg/kg twice daily P.O. (group 7), day 21

SMILES: CNC(=O)c1[nH]c(C(=O)NC2CCC2)cc1O[C@@H](C)c1ccccc1 (stereo in doubt) [Example 101, N^5-cyclobutyl-N^2-methyl-3-(1-phenylethoxy)-1H-pyrrole-2,5-dicarboxamide]
- animals with a score of 2 on one hind limb and no score on the other hind limb [1]: 1/8
- animals with scores of 1 or 2 on both hind limbs [1]: 2/8
- animals with scores of 3 on each hind limb [1]: 3/8
- animals with scores of 4 on one or more hind limbs (10 mg/kg twice daily P.O. (group 6), days 19 and 21): 2/8
- paw volume increase at plateau relative to day 0 (10 mg/kg twice daily P.O. (group 6), plateau at day 18): approximately 50%
- Average animal paw volume percent change (10 mg/kg, Day 0, left hind paw (L)): 0.00%
- Animal paw volume Day 0 L (10 mg/kg, Day 0, left paw, individual animals): 1.39 mL and 1.26 mL (2×) and 1.29 mL (2×) and 1.31 mL and 1.30 mL and 1.37 mL
- Average animal paw volume percent change (10 mg/kg, Day 0, right hind paw (R)): 0.00%
- Animal paw volume Day 0 R (10 mg/kg, Day 0, right paw, individual animals): 1.41 mL and 1.26 mL (2×) and 1.30 mL (3×) and 1.31 mL and 1.37 mL
- Average animal paw volume percent change (10 mg/kg, Day 6, left hind paw (L)): 1.14%
- Animal paw volume Day 6 L (10 mg/kg, Day 6, left paw, individual animals): 1.41 mL and 1.23 mL and 1.31 mL and 1.33 mL and 1.34 mL and 1.35 mL and 1.37 mL and 1.26 mL
- Average animal paw volume percent change (10 mg/kg, Day 6, right hind paw (R)): 0.87%
- Animal paw volume Day 6 R (10 mg/kg, Day 6, right paw, individual animals): 1.41 mL and 1.24 mL and 1.32 mL and 1.33 mL and 1.34 mL (2×) and 1.36 mL and 1.26 mL
- Average animal paw volume percent change (10 mg/kg, Day 12, left hind paw (L)): 7.61%
- Animal paw volume Day 12 L (10 mg/kg, Day 12, left paw, individual animals): 1.52 mL and 1.26 mL and 1.43 mL and 1.63 mL and 1.34 mL and 1.44 mL and 1.39 mL and 1.27 mL
- Average animal paw volume percent change (10 mg/kg, Day 12, right hind paw (R)): 7.98%
- Animal paw volume Day 12 R (10 mg/kg, Day 12, right paw, individual animals): 1.44 mL and 1.27 mL and 1.88 mL and 1.33 mL and 1.35 mL and 1.38 mL and 1.39 mL and 1.29 mL
- Average animal paw volume percent change (10 mg/kg, Day 13, left hind paw (L)): 16.61%
- Animal paw volume Day 13 L (10 mg/kg, Day 13, left paw, individual animals): 1.71 mL and 1.32 mL and 1.81 mL and 1.83 mL and 1.35 mL and 1.45 mL and 1.44 mL and 1.31 mL
- Average animal paw volume percent change (10 mg/kg, Day 13, right hind paw (R)): 10.89%
- Animal paw volume Day 13 R (10 mg/kg, Day 13, right paw, individual animals): 1.54 mL and 1.32 mL and 1.90 mL and 1.37 mL (2×) and 1.41 mL and 1.44 mL and 1.29 mL
- Average animal paw volume percent change (10 mg/kg, Day 14, left hind paw (L)): 30.15%
- Animal paw volume Day 14 L (10 mg/kg, Day 14, left paw, individual animals): 2.00 mL and 1.50 mL and 2.07 mL and 2.45 mL and 1.39 mL and 1.45 mL and 1.44 mL and 1.31 mL
- Average animal paw volume percent change (10 mg/kg, Day 14, right hind paw (R)): 21.45%
- Animal paw volume Day 14 R (10 mg/kg, Day 14, right paw, individual animals): 1.62 mL and 1.68 mL and 2.23 mL and 1.67 mL and 1.37 mL and 1.43 mL and 1.46 mL and 1.28 mL
- Average animal paw volume percent change (10 mg/kg, Day 15, left hind paw (L)): 40.41%
- Animal paw volume Day 15 L (10 mg/kg, Day 15, left paw, individual animals): 2.13 mL and 1.73 mL and 2.33 mL and 2.49 mL and 1.41 mL and 1.60 mL and 1.49 mL and 1.51 mL
- Average animal paw volume percent change (10 mg/kg, Day 15, right hind paw (R)): 34.05%
- Animal paw volume Day 15 R (10 mg/kg, Day 15, right paw, individual animals): 1.93 mL and 1.83 mL and 2.53 mL and 1.91 mL and 1.38 mL and 1.45 mL and 1.51 mL and 1.52 mL
- Average animal paw volume percent change (10 mg/kg, Day 18, left hind paw (L)): 59.21%
- Animal paw volume Day 18 L (10 mg/kg, Day 18, left paw, individual animals): 2.40 mL and 2.04 mL and 2.54 mL and 2.70 mL and 1.51 mL (2×) and 2.30 mL and 1.64 mL
- Average animal paw volume percent change (10 mg/kg, Day 18, right hind paw (R)): 54.15%
- Animal paw volume Day 18 R (10 mg/kg, Day 18, right paw, individual animals): 2.23 mL and 2.08 mL and 2.52 mL and 2.74 mL and 1.59 mL and 1.91 mL and 1.58 mL and 1.51 mL
- Average animal paw volume percent change (10 mg/kg, Day 19, left hind paw (L)): 58.75%
- Animal paw volume Day 19 L (10 mg/kg, Day 19, left paw, individual animals): 2.38 mL and 2.04 mL and 2.49 mL and 2.64 mL and 1.48 mL and 2.32 mL and 1.65 mL and 1.60 mL
- Average animal paw volume percent change (10 mg/kg, Day 19, right hind paw (R)): 54.16%
- Animal paw volume Day 19 R (10 mg/kg, Day 19, right paw, individual animals): 2.36 mL and 2.05 mL and 2.47 mL and 2.71 mL and 1.58 mL and 1.87 mL and 1.57 mL and 1.56 mL
- Average animal paw volume percent change (10 mg/kg, Day 21, left hind paw (L)): 60.25%
- Animal paw volume Day 21 L (10 mg/kg, Day 21, left paw, individual animals): 2.38 mL and 2.03 mL and 2.48 mL and 2.64 mL and 1.48 mL and 2.33 mL and 1.83 mL and 1.60 mL
- Average animal paw volume percent change (10 mg/kg, Day 21, right hind paw (R)): 59.20%
- Animal paw volume Day 21 R (10 mg/kg, Day 21, right paw, individual animals): 2.35 mL and 2.04 mL and 2.46 mL and 2.68 mL and 1.58 mL and 2.15 mL and 1.82 mL and 1.62 mL
- animals that never showed signs of disease [2]: one animal
- average clinical score relative to CIA + vehicle (group 2) [2]: significantly decreased (p<0.01) relative to animals in group 2 on days 18, 19 and 21
- average overall clinical score at plateau [2]: 4
- day on which paw volume noticeably increased [2]: ~19 days
- effect on hind paw volume [2]: most effective dose at preventing an increase in paw volume; also recorded: Paw volume increases were delayed; also recorded: proved most effective
- paw volume increase at plateau relative to day 0 [2]: approximately 35%
- paw volume relative to CIA + vehicle (group 2) [2]: significantly reduced relative to group 2 at day 15 (left paw, p<0.05) and days 18, 19, 21 (both paws, p<0.01)
- animals exhibiting signs of disease (30 mg/kg twice daily P.O. (group 7), day 12): One animal
- animals exhibiting disease [3]: 4/8
- animals with a score of 2 on one hind limb [3]: 2/8
- animals exhibiting disease (30 mg/kg twice daily P.O. (group 7), day 16): 5/8
- animals with scores of 2 or 3 on both hind limbs (30 mg/kg twice daily P.O. (group 7), day 18): 3/8
- animals exhibiting disease [4]: 7/8
- animals with a score of 2 or 3 on both hind limbs [4]: 4/8
- animals with a clinical score of 3 on both hind limbs [5]: 4/8
- animals with a score of 1 on one or both hind limbs [5]: 3/8
- animals with no clinical score [5]: 1/8
- Average animal paw volume percent change (30 mg/kg, Day 0, left hind paw (L)): 0.00%
